Measurements: US20220096436A1, “COMBINATION PRODUCT FOR THE TREATMENT OF CANCER” (Debiopharm International S.A., priority 2019, published 2022)

Legend:
[1] = nivolumab 3-10 mg/kg q2w monotherapy across tumor types, n=2,578; cited from earlier work
cancers = settings: nivolumab monotherapy, 27 trials, n=5,551, cited from earlier work
CT-26 colorectal cancer = assay: Therapeutic efficacy in CT-26 colorectal cancer mouse syngeneic model; assay type: in vivo; settings: Debio 1143 combined with IDO inhibitor INCB024360
Protocol: (§1) The therapeutic efficacy of Debio 1143 combined with an anti-CTLA4 antibody was tested in a TS/A breast cancer mouse syngeneic model. Further, the therapeutic efficacy of Debio 1143 combined with an IDO inhibitor (INCB024360) was tested in a CT-26 colorectal cancer mouse syngeneic model.

TS/A breast cancer = assay: Therapeutic efficacy in TS/A breast cancer mouse syngeneic model; assay type: in vivo; settings: Debio 1143 combined with an anti-CTLA4 antibody
Protocol: as §1

B16F10 melanoma tumors = assay: Anti-tumor efficacy in subcutaneous B16F10 mouse melanoma syngeneic model; assay type: in vivo, C57BL/6 mice; settings: for TGI: vs vehicle; for mean tumor volume: vehicle group 1529 mm^3
Protocol: C57BL/6 mice were s.c. injected with 2×10^5 B16F10 tumor cells (see, for example, Bobek et al., 2010. Anticancer Res. 30(12):4799-803) and treatments started at a mean group tumor size of 94 mm^3 (n=8/group). Debio 1143 at 100 and 200 mg/kg p.o. was given on 5 days/week in combination with 10 mg/kg i.p. anti-PD1 twice weekly and compared to treatment with vehicle plus isotype antibody. In addition, the 100 mg/kg dose given twice weekly in combination with anti-PD1 at 10 mg/kg i.p. twice weekly was tested.

Row | Molecule | adverse reaction frequency: diarrhea [1] [%] | adverse reaction frequency: fatigue [1] [%] | adverse reaction frequency: pruritus [1] [%] | adverse reaction frequency: rash [1] [%] | pooled objective response rate (ORR) (cancers; 95% CI 21-31) [%] | 6-month PFS rate (cancers; 95% CI 34-46) [%] | 1-year OS rate (cancers; 95% CI 43-62) [%] | combination therapy compared to the respective monotherapies (CT-26 colorectal cancer) | combination therapy compared to the respective monotherapies (TS/A breast cancer) | TGI (B16F10 melanoma tumors; day 19, Debio 1143 100 mg/kg p.o. QD1-5 combined with anti-PD-1 10 mg/kg, P=0.155) [%] | mean tumor volume (B16F10 melanoma tumors; day 19, Debio 1143 200 mg/kg p.o. 5 days/week in combination with 10 mg/kg anti-PD-1) [mm^3] | TGI (B16F10 melanoma tumors; day 19, Debio 1143 200 mg/kg p.o. 5 days/week in combination with 10 mg/kg anti-PD-1, P=0.005) [%] | mean tumor volume (B16F10 melanoma tumors; day 19, bi-weekly Debio 1143 100 mg/kg in combination with anti-PD-1 10 mg/kg) [mm^3] | TGI (B16F10 melanoma tumors; day 19, bi-weekly Debio 1143 100 mg/kg in combination with anti-PD-1 10 mg/kg, P=0.757) [%] | mean tumor volume (B16F10 melanoma tumors; day 19 from tumor inoculation, Debio 1143 100 mg/kg p.o. QD1-5 (5 days/week) combined with anti-PD-1 10 mg/kg i.p. twice weekly) [mm^3]
1 | nivolumab: fully human immunoglobulin G4 (IgG4) monoclonal antibody, which binds to the PD-1 receptor and blocks its interaction with PD-L1 and PD-L2 | 13 | 30 | 13 | 17 | 26 | 40 | 52 |  |  |  |  |  |  |  | 
2 | CN[C@@H](C)C(=O)N[C@H]1CN(C(=O)CC(C)C)CC[C@H]2CC[C@@H](C(=O)NC(c3ccccc3)c3ccccc3)N2C1=O [Debio 1143, (5S,8S,10aR)-N-benzhydryl-5-((S)-2-(methylamino)propanamido)-3-(3-methylbutanoyl)-6-oxodecahydropyrrolo[1,2-a][1,5]diazocine-8-carboxamide] |  |  |  |  |  |  |  | did not lead to a statistically significant improvement | did not lead to a statistically significant improvement | 31 | 594 | 61 | 1396 | 9 | 1049
